Assay results as given in ChEMBL document CHEMBL1132749, “Synthesis and antiproliferative evaluation of 7-aminosubstituted pyrroloiminoquinone derivatives” (Bioorg Med Chem Lett, 2000).
pIC50: −log10 of the molar value.

How the values were obtained:
L1210 [1] = experiment: Effect of compound on cellular cycle of L1210 leukemia cell; non specific; assay type: functional, cell-based; conditions: Mus musculus
L1210 [2] = experiment: The compound was evaluated in vitro for its antiproliferative activity against the murine L1210 leukemia cell; assay type: functional, cell-based; conditions: Mus musculus

SMILES | Effect (L1210 [1]) | pIC50 (L1210 [2])
O=C1C(NCCc2ccc(O)cc2)=CC2=NCCc3c[nH]c1c32 | non specific | 5.68
O=C1C(NCCc2c[nH]c3ccccc23)=CC2=NCCc3c[nH]c1c32 | non specific | 5.28
O=C1C(NCCN2CCCC2)=CC2=NCCc3c[nH]c1c32 | non specific | 6.42
NC1=CC2=NCCc3c[nH]c(c32)C1=O [MAKALUVAMINE I] | non specific | 6.60
CN(C)CCNC1=CC2=NCCc3c[nH]c(c32)C1=O | non specific | 6.52
